Values after ≈ are worked out from the molar mass of the structure shown. Active and inactive are the calls of the source. The rule behind the calls is not given here.
Key:
[1] = Cytostatic activity against human HuH5.2 after 3 days by MTS/PMS assay; format: ADME, Huh-5-2; conditions: HuH5.2 cells
Vero [2] = assay: Cytostatic activity against african green monkey Vero cells in presence of guanosine; format: ADME, cell-based; conditions: chlorocebus sabaeus
Vero [3] = assay: Cytostatic activity against african green monkey Vero cells; format: ADME, cell-based; conditions: chlorocebus sabaeus
Hepatitis C virus = assay: Antiviral activity against HCV infected in human HuH5.2 assessed as inhibition of viral RNA synthesis after 4 days by Steady-Glo-luciferase assay; format: functional, organism-based, Hepacivirus hominis; conditions: Huh-5-2, 96 h
[4] = Inhibition of ATPase activity of HCV […] expressed in Escherichia coli; parameters: species or system Hepacivirus hominis
Hepacivirus hominis = assay: Inhibition of HCV recombinant NS5B RNA polymerase expressed in Escherichia coli up to 100 uM by liquid scintillation counter
[5] = Inhibition of HCV NS3 helicase expressed in Escherichia coli; parameters: species or system Hepacivirus hominis

- EC50 (Hepatitis C virus): 3 µg/mL (≈ 6.64 µM)
- IC50 [4]: > 1 mM
- Activity (Hepacivirus hominis): inactive
- IC50 [5]: 50 µg/mL (≈ 111 µM)
SMILES: COc1cc(OC)c2c(=O)c3cc(N)c(N4CCN(c5nccs5)CC4)cc3n(C)c2c1
- CC50 at 72 h [1]: > 50 µg/mL
- Activity (Vero [2]): Non-toxic
- Activity (Vero [3]): Toxic

— ChEMBL document CHEMBL1138495, “Inhibition of subgenomic hepatitis C virus RNA replication by acridone derivatives: identification of an NS3 helicase inhibitor” (J Med Chem, 2009)
